Assay results: patent US20250345277A1, “Ionizable Liposome, Preparation Thereof, and Application Thereof in Gene Delivery” (MAXIRNA (ZHEJIANG) TECHNOLOGY CO. LTD., priority 2021, published 2025)

Assays:
DC2.4 cells = assay: In vitro transfection of DC2.4 cells with EGFP mRNA LNP preparation (flow cytometry); type: cell-based, mouse; settings: DC2.4 cells; for Cell Viability / Positive Rate (EGFP): EGFP mRNA LNP, 200 ng mRNA per well, flow cytometry; for Fluorescence Intensity: EGFP mRNA expression level, normalized based on the sample with the highest fluorescence intensity
Excerpt: The description is based on peripheral blood mononuclear cells PBMC (Shanghai Oribiotech Co., Ltd.), human peripheral blood leukemia T cell Jurkat (ATCC), tumor infiltrating lymphocyte TIL (isolated from resected tumor tissue of a liver cancer patient, the preparation method refers to CN114763530A), mouse bone marrow-derived dendritic cells DC2.4 (Cell Bank of the Chinese Academy of Sciences), and Chinese hamster ovary cells CHO (ATCC) were used as verified cell lines for liposome transfection. PBMC, Jurkat, and TIL cells grew in suspension, while DC2.4 and CHO cells grew by adherent culture. All the operation steps of cell culture must strictly abide by the prescribed procedures, and sterile reagents is used to perform aseptic operations under a sterile workbench. The main steps are as follows: • 1) Cell recovery: the preserved cell cryopreservation solution was taken out of the −80° C. refrigerator, and was immediately put in a 37° C. water bath for rapid and continuous shaking, and was completely melted within one minute. Fresh medium was added to the 15 mL centrifuge tube in advance, and the cell solution was added to the centrifuge tube in a biological safety cabinet. A centrifuge tube of the same quality was taken and placed symmetrically in a centrifuge, centrifuged at a low speed at 1200 rpm for 5 min. After centrifugation, the supernatant was removed, and an appropriate amount of medium was slowly added along the tube wall. After the cells were evenly dispersed by blowing gently, the cell suspension was pipette and added to the culture bottle prepared in advance. The state and distribution of the cells in the early stage of recovery were observed under a microscope. The culture bottle was placed in a 5% CO2 incubator and incubated at 37° C., and the recovery time was recorded. • 2) Cell subculture: Under the microscope, if the cell density in the field of view reaches 80%-90%, the cells can be subcultured. Adherent cells need to be digested with trypsin. In order to avoid the residual serum in the culture medium to reduce the activity of trypsin, DPBS solution was added to wash once after removing the original culture medium. After remove the DPBS solution, trypsin was added to degrade the protein at the junction between cells. This separates the cells for further culture. The cells were gently shaked evenly and put into the incubator for digestion for 2 min. Immediately after the digestion was completed, an appropriate amount of medium was added to the original petri dish to terminate the digestion. Finally, the cells were carefully blowed off using a pipette and blowed until they are evenly dispersed, and then inoculated and subcultured at a certain ratio according to the experimental requirements. […]
• 1) DC2.4 cells recovery: the frozen DC2.4 cells were taken out from the −80° C. refrigerator, put in a 37° C. water bath to quickly thaw the cells, added to the preheated medium after thawing, centrifuged at 1200 rpm for 5 min, the supernatant was discarded, and an appropriate amount of DMEM medium with 10% FBS was added to resuspend the recovered DC2.4, and placed in a 5% CO2 incubator at 37° C. for activation and culture. • 2) According to the experimental arrangement, DC2.4 cells were plated on a 24-well plate one day in advance for cell transfection. Through cell counting, the number of cells and cell viability were recorded, the cell suspension were taken at 2×10^5 cells per well, then a certain volume of DMEM medium containing 10% FBS was added and mixed evenly, 1 mL of mixture was added to each well for subsequent transfection experiment. • 3) After 24 hours, the medium was gently removed 30 minutes in advance by a pipette, 1 mL DPBS was added to each well for washing and then removed, then 300 μL serum-free Opti-MEM medium was added to each well for subsequent transfection experiments.
Subsequent steps are the same as the transfection protocol for PBMC cells. […]

[1] = Size and polydispersity index PDI of lipid nanoparticles (Malvern Zetasizer Nano ZS); type: physicochemical; settings: LNP ionizable lipid/DOPE/cholesterol/DSPE-PEG2000 35/16/46.5/2.5 mol% encapsulating EGFP mRNA; for Particle Size: in nm (unit assumed)
Protocol: (§1) The ionizable lipid compound of Example 1 was dissolved in ethanol with DOPE, cholesterol and DSPE-PEG2000 (all purchased from AVT (Shanghai) Pharmaceutical Technology Co., Ltd.) at a molar ratio of 35:16:46.5:2.5 to prepare ethanol lipid solution, and enhanced green fluorescent protein (EGFP) mRNAs (Shanghai Maximna Pharmaceutical Engineering Co., Ltd., JN-4201) were diluted in 20 mM citrate buffer (pH=6.1) to obtain mRNA aqueous solution. Ethanol lipid solution and mRNA aqueous solution were mixed at a volume ratio of 1:3 by using a microfluidic device (Micro&Nano (Shanghai) Instrument Technology Co., Ltd., model: INano™ML), LNPs were prepared with a weight ratio of approximately 10:1 between total lipids and mRNAs. The medium was replaced by ultrafiltration, ethanol was removed and volumed with DPBS. Finally, the lipid nanoparticles were filtered through a 0.2 μm sterile filter to obtain a LNP formulation encapsulating eGFP mRNA using ionizable lipid/DOPE/cholesterol/DSPE-PEG2000 (35/16/46.5/2.5 mol %), the concentration of mRNAs being 0.002 mg/mL-0.5 mg/mL.
Using Malvern Zetasizer Nano ZS (Malvern UK), the size and polydispersity index PDI of lipid nanoparticles were measured at […].

[2] = Entrapment efficiency of LNP preparation encapsulating EGFP mRNA; type: physicochemical; settings: LNP ionizable lipid/DOPE/cholesterol/DSPE-PEG2000 35/16/46.5/2.5 mol% encapsulating EGFP mRNA
Protocol: as §1, with “mg/mL. […]” for “mg/mL.”

Structure (SMILES) | PDI [1] | Particle Size [1] | Entrapment Efficiency [2] [%] | Cell Viability (DC2.4 cells) [%] | Positive Rate (EGFP) (DC2.4 cells) [%] | Fluorescence Intensity (DC2.4 cells)
CCCCCCCCCCC(O)CN(CCN(CCN1CCN(C)CC1)CCN(CC(O)CCCCCCCCCC)CC(O)CCCCCCCCCC)CC(O)CCCCCCCCCC (stereo not drawn) [E-C12] | 0.133 | 96.9 | 95.02 | 84.8 | 56.4 | 0.69
CCCCCCCCCCC(O)CN(CCOCCN(CCOCCN(CC(O)CCCCCCCCCC)CC(O)CCCCCCCCCC)CCN1CCN(C)CC1)CC(O)CCCCCCCCCC (stereo not drawn) [F-C12] | 0.133 | 77.7 | 92.31 | 87.1 | 63.9 | 0.28
CCCCCCCCCCC(O)CN(CCOCCOCCN(CCOCCOCCN(CC(O)CCCCCCCCCC)CC(O)CCCCCCCCCC)CCN1CCN(C)CC1)CC(O)CCCCCCCCCC (stereo not drawn) [G-C12] | 0.172 | 89.3 | 89.95 | 92.9 | 83.1 | 0.29
CCCCCCCCCCCCCCC(O)CN(CCOCCOCCN(CCOCCOCCN(CC(O)CCCCCCCCCCCCCC)CC(O)CCCCCCCCCCCCCC)CCN1CCN(C)CC1)CC(O)CCCCCCCCCCCCCC (stereo not drawn) [G-C16] | 0.102 | 78.2 | 85.40 | 94.5 | 79.6 | 0.54
CCCCCCCCCCCCCCCCC(O)CN(CCOCCOCCN(CCOCCOCCN(CC(O)CCCCCCCCCCCCCCCC)CC(O)CCCCCCCCCCCCCCCC)CCN1CCN(C)CC1)CC(O)CCCCCCCCCCCCCCCC (stereo not drawn) [G-C18] | 0.195 | 99.8 | 80.79 | 95.2 | 63.9 | 0.63
CCCCCCCCCCC(O)CN(CCOCCOCCOCCN(CCOCCOCCOCCN(CC(O)CCCCCCCCCC)CC(O)CCCCCCCCCC)CCN1CCN(C)CC1)CC(O)CCCCCCCCCC (stereo not drawn) [H-C12] | 0.136 | 95.9 | 94.13 | 86.0 | 74.3 | 0.78
CCCCCCCCCCCCCCC(O)CN(CCOCCOCCOCCN(CCOCCOCCOCCN(CC(O)CCCCCCCCCCCCCC)CC(O)CCCCCCCCCCCCCC)CCN1CCN(C)CC1)CC(O)CCCCCCCCCCCCCC (stereo not drawn) [H-C16] | 0.162 | 95.5 | 86.56 | >99.0 | 59.0 | 0.77
CCCCCCCCCCCCCCCCC(O)CN(CCOCCOCCOCCN(CCOCCOCCOCCN(CC(O)CCCCCCCCCCCCCCCC)CC(O)CCCCCCCCCCCCCCCC)CCN1CCN(C)CC1)CC(O)CCCCCCCCCCCCCCCC (stereo not drawn) [H-C18] | 0.143 | 73.8 | 80.61 | 97.4 | 81.9 | 0.38
CCCCCCCCCCC(O)CN(CCN(CCN1CCN(CCO)CC1)CCN(CC(O)CCCCCCCCCC)CC(O)CCCCCCCCCC)CC(O)CCCCCCCCCC (stereo not drawn) [I-C12] | 0.114 | 83.8 | 88.38 | 98.5 | 63.9 | 0.05
CCCCCCCCCCCCC(O)CN(CCN(CCN1CCN(CCO)CC1)CCN(CC(O)CCCCCCCCCCCC)CC(O)CCCCCCCCCCCC)CC(O)CCCCCCCCCCCC (stereo not drawn) [I-C14] | 0.180 | 120.3 | 87.59 | 97.0 | 62.7 | 0.05
CCCCCCCCCCCCCCCCC(O)CN(CCN(CCN1CCN(CCO)CC1)CCN(CC(O)CCCCCCCCCCCCCCCC)CC(O)CCCCCCCCCCCCCCCC)CC(O)CCCCCCCCCCCCCCCC (stereo not drawn) [I-C18] | 0.109 | 72.3 | 83.06 | 86.0 | 66.4 | 0.04

Now from value to molecule, other results behind:

PDI [1] | Particle Size [1] | Entrapment Efficiency [2] [%] | Structure (SMILES) | Cell Viability (DC2.4 cells) [%] | Positive Rate (EGFP) (DC2.4 cells) [%] | Fluorescence Intensity (DC2.4 cells)
0.107 | 76.9 | 91.51 | CCCCCCCCCCCCCCC(O)CN(CCN(CCN1CCN(C)CC1)CCN(CC(O)CCCCCCCCCCCCCC)CC(O)CCCCCCCCCCCCCC)CC(O)CCCCCCCCCCCCCC (stereo not drawn) [E-C16] | 94.4 | 59.9 | 0.71
0.099 | 91.9 | 92.39 | CCCCCCCCCCCCCCC(O)CN(CCOCCN(CCOCCN(CC(O)CCCCCCCCCCCCCC)CC(O)CCCCCCCCCCCCCC)CCN1CCN(C)CC1)CC(O)CCCCCCCCCCCCCC (stereo not drawn) [F-C16] | 96.8 | 60.3 | 0.17
0.081 | 77.2 | 80.61 | CCCCCCCCCCCCCCCCC(O)CN(CCOCCN(CCOCCN(CC(O)CCCCCCCCCCCCCCCC)CC(O)CCCCCCCCCCCCCCCC)CCN1CCN(C)CC1)CC(O)CCCCCCCCCCCCCCCC (stereo not drawn) [F-C18] | 93.5 | 61.5 | 0.67
0.147 | 96.3 | 91.60 | CCCCCCCCCCCCCCC(O)CN(CCN(CCN1CCN(CCO)CC1)CCN(CC(O)CCCCCCCCCCCCCC)CC(O)CCCCCCCCCCCCCC)CC(O)CCCCCCCCCCCCCC (stereo not drawn) [I-C16] | 81.3 | 68.7 | 0.06
0.105 | 99.7 | 92.88 | CCCCCCCCCCC(O)CN(CCOCCN(CCOCCN(CC(O)CCCCCCCCCC)CC(O)CCCCCCCCCC)CCN1CCN(CCO)CC1)CC(O)CCCCCCCCCC (stereo not drawn) [J-C12] | 81.8 | 62.6 | 0.04
